According to publication PMC5749684, “Tetrahydrocarbazoles are a novel class of potent P-type ATPase inhibitors with antifungal activity” (PLoS ONE, 2018):

How the values were obtained:
S. cerevisiae cells = assay: Membrane potential study (DiBAC4(3)); type: cell-based, Saccharomyces cerevisiae; details: 10 μM, 30 minutes exposure, compared to DMSO
Procedure: S. cerevisiae cells were grown to mid-log phase, pelleted at 2,000 x g for 2 minutes and washed twice in buffer A (100 mM MOPS and 1 mM KCl adjusted with Trizma base to pH 7.0). Cells were then resuspended in buffer A to an OD600 of 0.2. For each well 50 μL of buffer A with 3.3 μg/mL propidium iodide (PI) (Thermo Fisher Scientific, catalog number P1304MP) and 1 μg/mL DiBAC4(3) (Sigma-Aldrich, catalog number D8189)) was mixed with 50 μL S. cerevisiae cell suspension and transferred to a 96 well plate containing 1 μL of inhibitor (in DMSO). A lysis control was performed with Reagent Y100 (ChemoMetec). Five thousand cells were measured per experiment with an exposure time of 1000 ms using a NucleoCounter NC-3000 (ChemoMetec). Dark field was used as the masking channel to select the yeast cells, and the DiBAC4(3) ([…]) and PI (ex 630 nm, em 740/60 nm) channels were used to measure the membrane potential and membrane integrity, respectively. Only cells with a pixel size of 10–40 were included in the analysis, to avoid analysis of non-cell artifacts.

[1] = system: C. albicans (SC5314) cells; assay: Time-kill assay; type: cell-based, Candida albicans; details: for Reduction in CFU after 3 h exposure: 20 μM, compared to DMSO treated controls; for Fungicidal or fungistatic activity in time-kill (in words): AMB 0.54 μM, VRC 2.8 μM, 6 and 8 20 μM
Procedure: C. albicans (SC5314) cells (1 x 10^5 CFU/mL) were incubated in 10 mL RPMI-1640 media at 30°C with gentle agitation (150 rpm) in the presence of amphotericin B (0.5 μM), voriconazole (2.8 μM) or tetrahydrocarbazole compound (20 μM). At the indicated time points (0, 3, 6, and 24 h), a 100 μL aliquot was removed, serially diluted (10 fold) in saline (0.9% NaCl), and 30 μL aliquots were spread on YPD agar. CFU were counted after incubation at 30°C for 48 h. C. albicans cells treated with DMSO (1%, v/v) served as a control. 50 CFU/mL was selected as the lower limit of quantitation.

C. albicans cells = assay: Post-antifungal effect determination; type: cell-based, Candida albicans; details: 1 h exposure of C. albicans; AMB 0.54 μM, VRC 2.8 μM, 6 and 8 20 μM
Procedure: The post-antifungal effect (PAFE) of antifungal drugs on C. albicans was determined as described by others, with modifications. Briefly, 2 × 10^6 CFU/mL C. albicans cells were incubated in 1 mL RPMI-1640 media for 1 h at 30°C with gentle agitation in the presence of amphotericin B (0.54 μM), voriconazole (2.8 μM) or tetrahydrocarbazole compound (20 μM). Cells were subsequently washed in RPMI media 3 times by centrifugation (3 minutes, 5,000 x g) and finally re-suspended in 1 mL fresh RPMI medium and incubated at 30°C for 24 h. At various time intervals, a 100 μL aliquot was removed, serially diluted (10-fold) in saline (0.9% NaCl), and 30 μL aliquots were spread on YPD agar. The agar plates were incubated at 30°C for 48 h and the number of CFU/mL of culture was determined. C. albicans cells treated with DMSO (1%, v/v) served as a control. The number of CFU/mL obtained at specified time intervals was plotted against time (h) following compound removal. An increase in the CFU/mL of culture signifies growth and multiplication of yeast cells. The duration required for the antifungal drug-treated cells to recover from the inhibitory effect of the drug as indicated by an increase in CFU/mL of culture is defined as the PAFE.

| SMILES | DiBAC4(3) fluorescence signal, membrane depolarization (in words) (S. cerevisiae cells) | Reduction in CFU after 3 h exposure [1] [%] | Fungicidal or fungistatic activity in time-kill (in words) [1] | Post-antifungal effect (PAFE) (C. albicans cells) [h] |
| --- | --- | --- | --- | --- |
| NC1CCCc2c1[nH]c1cc(OC(F)(F)F)ccc21 (stereo not drawn) [Compound 4] | No significant differences |  |  |  |
| CN1CCC(NC2CCCc3c2[nH]c2cc(OC(F)(F)F)ccc32)CC1 (stereo not drawn) [Compound 5] | No significant differences |  |  |  |
| FC(F)(F)Oc1ccc2c3c([nH]c2c1)C(NCc1ccc(Cl)cc1)CCC3 (stereo not drawn) [Compound 6] |  | > 99 | fungistatic activity after 24 h of incubation | 5 |
| FC(F)(F)Oc1ccc2c3c([nH]c2c1)C(NCCOc1ccc(Cl)cc1)CCC3 (stereo not drawn) [Compound 8] |  | > 99 | fungistatic activity after 24 h of incubation | 5 |
| Clc1ccc2[nH]c3c(c2c1)CCCC3NCc1ccc(-c2ccccc2)cc1 (stereo not drawn) [Compound 10] | slight increase |  |  |  |
